# In patent US10071051B2, “WT1 peptide cancer vaccine composition for transdermal administration” (NITTO DENKO CORPORATION, priority 2013, dated 2018):
# Tested on: IFN-γ-producing cells (antigen-specific cellular immunity)
# Experiment: Mouse immunization test 2 (tape preparation), IFN-γ ELISPOT
# Assay type: in vivo, genetically modified mouse
# Details: compared with acid-free comparative example
# Experimental: (§1) Mouse immunization test was performed with the cream formulations using a model animal for immunological evaluation. Evaluation of the immunity induction level was performed by the ELISPOT method. Specifically, the hair of the back of the mouse was cut. The mouse was kept until it recovered from the skin damage due to the hair cutting. After that, a sample was applied to the back of the mouse for the predetermined time, and then removed. Then, the mouse was kept for predetermined days and the level of the antigen-specific cellular immunity was evaluated. After predetermined days from the application of the sample, the spleen was isolated and a spleen cell suspension was prepared. Spleen cells (3×10^6 cells/well) and the antigen peptide (100 μM) together with the culturing medium were placed into a well of an ELISPOT plate on which an anti-mouse IFN-γ antibody had been immobilized. The plate was cultured for 20 hours under the condition of 37° C. and 5% CO2. The number of the spots representing IFN-γ-producing cells (spot number/3×10^6 cells) was evaluated by the ELISPOT method. In all cases, 4 mg of the cream formulation was applied once for 24 hours and the spleen was isolated 6 days after the completion of the application.
# Mouse Immunization Test 2 (Tape Preparation)
# Using thus obtained tape preparation, mouse immunization test 2 was performed in the same manner as in the mouse immunization test 1. The preparation was applied once for 24 hours/week and a spleen was isolated 6 days after administration. Genetically modified mouse which can be used to evaluate the cellular immunity inducing ability of the HLA-A*0201 type MHC restricted peptide was used as model animal for immunological evaluation.
# In Example 69, the skin was injured with a microcutter (MICRO FEATHER No. 7330G, manufactured by FEATHER) before the application of the preparation.
row,Structure (SMILES),"cellular immunity induction, in words (acid blended in tape preparation)"
1,CC(O)C(=O)O (stereo not drawn) [lactic acid],excellent results
2,CCCCCCCCCCCCCC(=O)O [myristic acid],excellent results
3,CCCCCCCCCC(=O)O [decanoic acid],strong cellular immunity was induced
4,CCCCCCCCCCCC(=O)O [lauric acid],excellent results
5,CCCCCCCC/C=C\CCCCCCCC(=O)O [oleic acid],excellent results
6,CC(C)CCCCCCCCCCCCCCC(=O)O [isostearic acid],excellent results

# Tested on: IFN-γ-producing cells (antigen-specific cellular immunity)
# Experiment: Mouse immunization test 3 (liquid formulation for external use), IFN-γ ELISPOT
# Assay type: in vivo, C57BL/6 mouse
# Details: compared with acid-free comparative example
# Experimental: as §1
# Mouse Immunization Test 3 (Liquid Formulation for External Use)
# Using a liquid formulation for external use produced as described above, mouse immunization test was performed in the same manner as that in the mouse immunization test 1. The dose was 67 μL as described above. The liquid formulation was applied once for 24 hours/week and a spleen was isolated 6 days after completion of the application. The mouse used was a C57BL/6.
row,Structure (SMILES),"cellular immunity induction, in words (acid added to liquid formulation)"
1,CC(O)C(=O)O (stereo not drawn) [lactic acid],effective
2,CS(=O)(=O)O [methanesulfonic acid],effective
3,O=C(O)CC(O)C(=O)O (racemic) [malic acid],effective
4,O=C(O)/C=C\C(=O)O [maleic acid],effective
5,O=C(O)c1ccccc1O [salicylic acid],effective
6,O=C(O)CC(O)(CC(=O)O)C(=O)O [citric acid],effective
